pIC50: −log10 of the molar value.
molecular target: T1, Tyrosinase (Agaricus bisporus) (UniProt O42713); assay: Ratio of kojic acid IC50 to compound IC50 for mushroom tyrosinase
T1 sequence (whole entry): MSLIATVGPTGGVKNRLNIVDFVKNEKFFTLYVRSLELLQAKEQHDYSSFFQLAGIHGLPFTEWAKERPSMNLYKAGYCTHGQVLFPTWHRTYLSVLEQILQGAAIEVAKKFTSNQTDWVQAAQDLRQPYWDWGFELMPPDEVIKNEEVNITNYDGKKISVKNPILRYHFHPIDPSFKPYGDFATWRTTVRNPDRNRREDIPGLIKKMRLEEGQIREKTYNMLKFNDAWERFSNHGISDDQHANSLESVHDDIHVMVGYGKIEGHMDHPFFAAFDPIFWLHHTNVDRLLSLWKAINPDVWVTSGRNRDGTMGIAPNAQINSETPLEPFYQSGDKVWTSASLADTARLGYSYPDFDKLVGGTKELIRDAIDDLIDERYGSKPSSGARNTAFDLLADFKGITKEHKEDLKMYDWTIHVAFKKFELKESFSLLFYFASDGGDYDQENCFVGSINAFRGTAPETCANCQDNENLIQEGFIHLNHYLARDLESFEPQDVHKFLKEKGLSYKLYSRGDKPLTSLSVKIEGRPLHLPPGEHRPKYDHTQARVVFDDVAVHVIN

SMILES	Ratio IC50
C[C@H](CCc1ccc(O)cc1O)O[C@@H]1O[C@H](CO)[C@@H](O[C@@H]2O[C@H](CO)[C@@H](O)[C@H](O)[C@H]2O)[C@H](O)[C@H]1O	6

molecular target: T2, Tyrosinase (Agaricus bisporus, UniProt O42713); assay: Inhibition of mushroom tyrosinase using L-DOPA as substrate assessed as dopachrome formation after 5 mins by spectrophotometry
T2 sequence (O42713 whole entry): T1 sequence (whole entry)

SMILES	pIC50
C[C@H](CCc1ccc(O)cc1O)O[C@@H]1OC[C@@H](O)[C@H](O)[C@H]1O	5.76
C[C@H](CCc1ccc(O)cc1O)O[C@@H]1O[C@H](CO)[C@@H](O)[C@H](O)[C@H]1O	5.64
C[C@@H](CCc1ccc(O)cc1O)O[C@@H]1O[C@H](CO)[C@@H](O[C@@H]2O[C@H](CO)[C@@H](O)[C@H](O)[C@H]2O)[C@H](O)[C@H]1O	5.42
CCCCCCc1ccc(O)cc1O [HEXYLRESORCINOL]	6.25
C[C@@H](CCc1ccc(O)cc1O)O[C@@H]1OC[C@@H](O)[C@H](O)[C@H]1O	5.34
C[C@@H](CCc1ccc(O)cc1O)O[C@@H]1O[C@H](CO)[C@@H](O)[C@H](O)[C@H]1O	5.33
C[C@H](CCc1ccc(O)cc1O)O[C@@H]1O[C@H](CO)[C@@H](O[C@@H]2O[C@H](CO)[C@@H](O)[C@H](O)[C@H]2O)[C@H](O)[C@H]1O	5.82
